Measured values taken from US8598159B2, “Therapeutic pyrazoloquinoline derivatives” (Dart Neuroscience (Cayman) Ltd., priority 2007, dated 2013).

Key:
[1] = target: GABAA central benzodiazepine receptor; assay: Benzodiazepine binding assay ((3H)-flunitrazepam displacement); conditions: read-out: BZ binding assay (IC50); rat whole brain (except cerebellum), 1 nM (3H)-flunitrazepam, 60 minutes at 25° C.; 3-concentration dose response curve
[2] = tested on: GABAA receptors; assay: Electrophysiology assay (two-electrode voltage clamp, Xenopus oocytes expressing GABAA receptors); format: cell-based; conditions: positive (Pos) or negative (Neg) modulation of current at GABA EC20, screening concentration of 10 μM
Protocol: The modulation of GABAA function is determined by changes in current as determined in an electrophysiology assay, as is detailed below.
mRNA was prepared from lyophilized plasmid pellets containing cDNA inserts encoding the specific GABAA receptor subunit. cDNAs encoding the α2, α3, and γ3 subunits were subcloned into pBluescript, SK^−. cDNAs encoding the a 1 and a 5 subunits were subcloned into prC while cDNA encoding the β2 subunit was subcloned into pcDNA1. The cDNA construct encoding the g 2s subunit is in the pGH19 expression construct. Overnight cultures of transformed DH5a bacterial cells were performed to grow sufficient quantities for maxiprep isolation of the plasmid cDNA. The resulting plasmid cDNA was linearized by digestion with an appropriate restriction enzyme that cleaves distal to the cDNA insert [XbaI (α1, β2), NotI (α3, γ2 s), SacII (α2), or ApaI (α5)]. Following digestion, plasmid cDNA was treated with proteinase K and extracted with phenol/chloroform/isoamyl alcohol, followed by ethanol precipitation. cDNA quality was assessed by agarose-gel electrophoresis (1.5% agarose gel). Samples were stored at −20° C. until use. In vitro transcription was performed with T7 RNA polymerase. mRNA was then stored at −80° C. until use. Plasmids were linearized with appropriate restriction enzymes before in vitro transcription using the Message Machine kit (Ambion, Austin, Tex.).
GABAA receptor expression in Xenopus oocytes: Following 45 min of 0.15% Tricaine anesthesia, an ovarian section containing the follicular oocytes was removed from the frog through a lateral abdominal incision. Oocytes were immediately placed in a calcium-free solution (NaCl 96 mM, MgCl2 1 mM, KCl 2 mM, Hepes 50 mM, pyruvate 2.5 mM, gentamycin 100 μg/mL, penicillin-streptomycin 50 U/mL, pH 7.4). Following 1.5-2 hour incubation in 0.2% collagenase (type II, Sigma Chemical Co., St. Louis, Mo.) at room temperature, individual Dumont stage V and VI oocytes were transferred to an incubator and maintained overnight in Barth's solution (NaCl 84 mM, NaHCO3 2.4 mM, MgSO4 0.82 mM, KCl 1 mM, Ca(NO3)2 0.33 mM, CaCl2 0.41 mM, Tris/HCl 7.5 mM, pyruvate 2.5 mM, gentamycin 50 μg/mL, penicillin-streptomycin, 100 units/mL, pH 7.4) at 18-20° C. and used for experiments 1-5 days post-injection. Oocytes were injected solution using an electronic microinjector (Drummond, Broomall, Pa.) with 50 nL of RNA containing 0.3-0.5 ng of each subunit RNA in a 1:1:2 ratio. The injected oocytes were used for experiments after 1-5 days of incubation in Barth's solution at 18-20° C.
Measurements of ion currents from oocytes expressing GABAA receptors were performed using a Warner two-electrode voltage-clamp amplifier (Warner Instruments, Inc., Foster City, Calif.) (Park-Chung, M. A., et al. (1999) Brain Res. 830: 72-87 incorporated herein in its entirety). Microelectrodes were fabricated from borosilicate glass capillaries with a programmed pipette puller (Sutter Instrument Co., CA). Microelectrode resistance was 1-3 MΩ when filled with 3 M KCl. The oocyte recording chamber was continuously perfused with ND-96 solution. Oocytes were clamped at a holding potential of −70 mV during data acquisition. The membrane current was filtered at 10 Hz and sampled at 100 Hz. Compounds were applied by a gravity-driven external perfusion system. The working volume of the recording chamber was […] and the rate of the perfusion was approximately […]. Compound application was 20-25 sec followed by a minimum of 150 sec wash. Data acquisition and external perfusion was computer controlled by custom-developed software. All experiments were performed at room temperature (22-24° C.). Dose-response data from each oocyte were fitted to the Hill equation by non-linear regression using the equation: IGABA=Emax/(1+(EC50/c)nH)
Emax is the maximum response, EC50 is the concentration producing 50% of the maximal response, nH is the Hill coefficient and c is the concentration of agonist. […]

IC50 [1] [nM] | EP Result [2] | SMILES
< 1000 | Pos | O=c1c2c[nH]c3cc(N4CCOCC4)ccc3c-2nn1-c1ccccc1 [28h, 7-Morpholin-4-yl-2-phenyl-2,5-dihydro-pyrazolo[4,3-c]quinolin-3-one]
< 1000 | Neg | O=c1c2c[nH]c3c(F)c(N4CCNCC4)c(F)cc3c-2nn1-c1ccccc1 [44a, 6,8-Difluoro-2-phenyl-7-piperazin-1-yl-2,5-dihydro-pyrazolo[4,3-c]quinolin-3-one]
< 1000 | Pos | CN1CCN(c2c(F)cc3c4nn(-c5ccccc5)c(=O)c-4c[nH]c3c2F)CC1 [44b, 6,8-Difluoro-7-(4-methyl-piperazin-1-yl)-2-phenyl-2,5-dihydro-pyrazolo [4,3-c]quinolin-3-one]
< 1000 | Pos | CC(C)N1CCN(c2cc3[nH]cc4c(=O)n(-c5ccccc5)nc-4c3cc2F)CC1 [28c, 8-Fluoro-7-(4-isopropylpiperazin-1-yl)-2-phenyl-2,5-dihydro-pyrazolo [4,3-c]quinolin-3-one]
< 1000 | Neg | O=c1c2c[nH]c3cc(N4CCOCC4)c(F)cc3c-2nn1-c1ccccn1 [28d, 8-Fluoro-7-(morpholin-4-yl)-2-pyridin-2-yl-2,5-dihydro-pyrazolo[4,3-c]quinolin-3-one]
< 1000 | Pos | COc1ccc(-n2nc3c4cc(F)c(N5CCN(C)CC5)c(F)c4[nH]cc-3c2=O)cc1 [44d, 6,8-Difluoro-2-(4-methoxyphenyl)-7-(4-methylpiperazin-1-yl)-2,5-dihydro-pyrazolo[4,3-c]quinolin-3-one]
< 1000 | Pos | O=c1c2c[nH]c3cc(N4CCOCC4)c(F)cc3c-2nn1-c1ccccc1 [28b, 8-Fluoro-7-morpholin-4-yl-2-phenyl-2,5-dihydro-pyrazolo[4,3-c]quinolin-3-one]
< 1000 | Pos | CN1CCN(c2cc3[nH]cc4c(=O)n(-c5ccccn5)nc-4c3cc2F)CC1 [28f, 8-Fluoro-7-(4-methylpiperazin-1-yl)-2-pyridin-2-yl-2,5-dihydro-pyrazolo[4,3-c]quinolin-3-one]
 | Neg | CC(C)N1CCN(c2cc(N3CCN(C(C)C)CC3)c3[nH]cc4c(=O)n(-c5ccccc5)nc-4c3c2)CC1 [58b, 6,8-Bis(4-iso-propylpiperazin-1-yl)-2-phenyl-2,5-dihydro-pyrazolo[4,3-c]quinolin-3-one]
 | Neg | O=c1c2c[nH]c3c(N4CCOCC4)cc(N4CCOCC4)cc3c-2nn1-c1ccccc1 [58a, 6,8-Bis(morpholin-4-yl)-2-phenyl-2,5-dihydro-pyrazolo[4,3-c]quinolin-3-one]
< 1000 |  | O=c1c2c[nH]c3c(F)c(N4CCCNCC4)ccc3c-2nn1-c1ccccc1 [48d, 6-Fluoro-7-(perhydro[1,4]-diazepine-1-yl)-2-phenyl-2,5-dihydro-pyrazolo[4,3-c]quinolin-3-one]
> 1000 |  | Cc1[nH]c2cc(N3CCNCC3)c(F)cc2c2nn(-c3ccccc3)c(=O)c1-2 [63a, 8-Fluoro-4-methyl-2-phenyl-7-piperazin-1-yl-2,5-dihydro-pyrazolo[4,3-c]quinolin-3-one]
< 1000 |  | CN1CCN(c2cc(C(F)(F)F)cc3c4nn(-c5ccccc5)c(=O)c-4c[nH]c23)CC1 [52b, 2-Phenyl-6-(4-methylpiperazin-1-yl)-8-trifluoromethyl-2,5-dihydro-pyrazolo[4,3-c]quinolin-3-one]
< 1000 |  | CN1CCN(c2cc3[nH]cc4c(=O)n(-c5ccccc5F)nc-4c3cc2F)CC1 [28o, 8-fluoro-2-(2-fluorophenyl)-7-(4-methylpiperazin-1-yl)-2,5-dihydro-pyrazolo[4,3-c]quinolin-3-one]
< 1000 |  | O=c1c2c[nH]c3cc(N4CCOCC4)c(F)cc3c-2nn1-c1ccsc1 [28r, 8-fluoro-7-(morpholin-4-yl)-2-(thiophen-3-yl)-2,5-dihydro-pyrazolo[4,3-c]quinolin-3-one]
< 1000 |  | CC(C)N1CCN(c2ccc3c4nn(-c5ccccn5)c(=O)c-4c[nH]c3c2F)CC1 [48f, 6-Fluoro-7-(4-iso-propylpiperazin-1-yl)-2-(2′-pyridyl)-2,5-dihydro-pyrazolo[4,3-c]quinolin-3-one]

Continued, compound first:

SMILES | IC50 [1] [nM] | EP Result [2]
O=c1c2c[nH]c3ccc(N4CCOCC4)cc3c-2nn1-c1ccccc1F [19e, 2-(2-Fluorophenyl)-8-morpholin-4-yl-2,5-dihydro-pyrazolo[4,3-c]quinolin-3-one] | < 1000 | Neg
CN1CCN(c2ccc3[nH]cc4c(=O)n(-c5ccccc5)nc-4c3c2)CC1 [7b, 8-(4-Methylpiperazin-1-yl)-2-phenyl-2,5-dihydro-pyrazolo[4,3-c]quinolin-3-one] | < 1000 | Pos
O=c1c2c[nH]c3cc(N4CCNCC4)ccc3c-2nn1-c1ccc(Cl)cc1 [14c, 2-(4′-Chlorophenyl)-7-piperazin-1-yl-2,5-dihydro-pyrazolo[4,3-c]quinolin-3-one] | < 1000 | Neg
O=c1c2c[nH]c3ccc(N4CCOCC4)cc3c-2nn1-c1ccccn1 [19c, 8-Morpholin-4-yl-2-pyridin-2-yl-2,5-dihydro-pyrazolo[4,3-c]quinolin-3-one] | < 1000 | Neg
CN1CCN(c2ccc3c4nn(-c5ccc(Cl)cc5)c(=O)c-4c[nH]c3c2)CC1 [14d, 2-(4-Chlorophenyl)-7-(4-methylpiperazin-1-yl)-2,5-dihydro-pyrazolo[4,3-c]quinolin-3-one] | < 1000 | Neg
O=c1c2c[nH]c3ccc(N4CCNCC4)cc3c-2nn1-c1ccccc1 [7a, 2-Phenyl-8-piperazin-1-yl-2,5-dihydro-pyrazolo[4,3-c]quinolin-3-one] | < 1000 | Pos
COc1ccc(-n2nc3c4ccc(N5CCNCC5)cc4[nH]cc-3c2=O)cc1 [14e, 2-(4-Methoxyphenyl)-7-piperazin-1-yl-2,5-dihydro-pyrazolo[4,3-c]quinolin-3-one] | < 1000 | Neg
O=c1c2c[nH]c3ccc(N4CCOCC4)cc3c-2nn1-c1ccccc1 [19d, 8-Morpholin-4-yl-2-phenyl-2,5-dihydro-pyrazolo[4,3-c]quinolin-3-one] | < 1000 | Neg
O=c1c2c[nH]c3cc(F)c(N4CCOCC4)cc3c-2nn1-c1ccccc1 [19a, 7-Fluoro-8-morpholin-4-yl-2-phenyl-2,5-dihydro-pyrazolo[4,3-c]quinolin-3-one] | < 1 | Pos
COc1ccc(-n2nc3c4cc(N5CCNCC5)ccc4[nH]cc-3c2=O)cc1 [7e, 2-(4′-Methoxyphenyl)-8-piperazin-1-yl-2,5-dihydro-pyrazolo[4,3-c]quinolin-3-one] | < 1000 | Pos
CN1CCN(c2ccc3[nH]cc4c(=O)n(-c5ccc(Cl)cc5)nc-4c3c2)CC1 [7d, 2-(4′-Chlorophenyl)-8-(4-methylpiperazin-1-yl)-2,5-dihydro-pyrazolo[4,3-c]quinolin-3-one] | < 1000 | Pos
O=c1c2c[nH]c3cc(N4CCOCC4)c(F)c(N4CCOCC4)c3c-2nn1-c1ccccc1 [compound 55, 7,9-Bis(morpholin-4-yl)-8-fluoro-2-phenyl-2,5-dihydro-pyrazolo[4,3-c]quinolin-3-one] | < 1000 | 
